{"source": "patent US20070167419A1", "about": "“TREATMENT FOR EMBOLIC STROKE” (priority 2005, published 2007)", "assay_type_in_all_cases": "in vivo", "key": {"[1]": {"test_system": "small clot embolic strokes in rabbits", "test": "rabbit small clot embolic stroke model (RSCEM), quantal analysis of behavior", "source_text": "The invention used a rabbit small clot embolic stroke model (RSCEM) that reproduces many facets of human AIS including a well-defined clinical endpoint. The RSCEM utilizes administration of a suspension of small blood clots to induce strokes, and behavioral deficits that can be measured quantitatively. Moreover, the RSCEM is useful to conduct studies testing the effects of single drugs or drug combinations such as a neuroprotective agent (e.g., NXY-059) plus a thrombolytic (Tenecteplase, Alteplase, Desmoteplase and the like). Since it is likely that a drug combination will be used for patient management it is important to determine whether there are any interactions (positive or negative) between the compounds when administered following embolic strokes.\nMethods: Male New Zealand white rabbits were anesthetized using halothane (5% induction, 2% maintenance by facemask), the bifurcation of the right carotid artery was exposed and the external carotid was ligated just distal to the bifurcation, where a catheter was inserted into the common carotid and secured with ligatures. The incision was closed around the catheter with the distal ends left accessible outside the neck; the catheter was filled with heparinized saline and plugged with an injection cap. Rabbits were allowed to recover from anesthesia for a minimum of 3 h until they awoke and behaved normally.\nFor the RSCEM, microclots were prepared from blood drawn from a donor rabbit and allowed to clot at 37° C. All rabbits in the study received injections of the same sized microclots. For embolization, clot particles were rapidly injected through the carotid catheter and both the syringe and catheter were flushed with 5 ml of normal saline.\nTreatment Regimens: (A) Dose-Response Curve: NXY-059 was administered IV at a dose of 0.1-100 mg/kg infused over 30 min beginning 1 hour following embolization. (B) Therapeutic Window: NXY-059 (100 mg/kg) was given beginning 1, 3 or 6 hours following embolization. (C) Tenecteplase Dosing: Tenecteplase was administered IV at a dose of 0.9 mg/kg as a bolus injection given over one minute was administered 1 or 6 hours following embolization. (D) Combination studies: NXY-059 was administered IV at a dose of 100 mg/kg infused over 30 min and Tenecteplase was administered IV at a dose of 0.9 mg/kg beginning 1 or 6 hours following embolization.\nQuantal Dose-Response Analysis: For the RSCEM, a quantal dose-response data analysis technique was used. A wide range of lesion volumes is induced to generate both normal and abnormal animals. Using 3 or more different doses of microclots generated each quantal analysis curve. […] Each animal is rated as either normal or abnormal (including dead animals), and inter-rater variability is very low (<5%). […] With this simple rating system, the composite result for a group of animals is quite reproducible. The P50 values are then calculated. These parameters are measures of the amount of microclots (in mg) that produce neurologic dysfunction in 50% of a group of animals. A separate curve is generated for each treatment condition that was tested. The data were analyzed using the t-test, which included the Bonferroni correction where appropriate.\nUsing the RSCEM model as described above male New Zealand white rabbits weighing 2.2-2.6 Kg were anesthetized and a catheter was inserted into the common carotid artery through which microclots were injected. Briefly, the bifurcation of one carotid artery was exposed and the external carotid was ligated just distal to the bifurcation. A catheter was inserted into the common carotid and secured with ligatures. The incision was closed around the catheter so that the distal end was accessible outside the animal's neck. The catheter was then filled with heparinized saline and plugged with an injection cap. Rabbits were allowed to recover from anesthesia until they were awake and behaving normally. […]"}, "[2]": {"test_system": "spinal cord ischemia induced by temporary occlusion of the infrarenal aorta", "test": "rabbit reversible spinal cord ischemia model (RSCIM)", "experimental": "In a rabbit reversible spinal cord ischemia model (RSCIM). ABHS was administered (25 mg/kg) intravenously (i.v.) 5 or 30 min following the start of occlusion to groups of rabbits exposed to ischemia induced by temporary occlusion of the infrarenal aorta. The group P50 represents the duration of ischemia (min) associated with a 50% probability of resultant permanent paraplegia."}, "[3]": {"test_system": "small clot embolic strokes in rabbits", "test": "rabbit small clot embolic stroke model (RSCEM), quantal analysis of behavior", "conditions": "for Observation: ABHS 25 mg/kg IV; for Abnorm / Norm: ABHS 25 mg/kg, 5 min"}, "[4]": {"conditions": "ABHS 25 mg/kg, 5 min, clot dose 0.38 mg"}}, "note": "“Also recorded” adds a separate entry of the source.", "data": [{"compound": "Tenecteplase", "values": [{"measurement": "P50", "setting": "[1]; Tenecteplase 0.9 mg/kg IV bolus, 1 hour following embolization, 24 hours", "result": "2.76 ± 0.37", "unit": "mg"}, {"measurement": "increase of P50 over control", "setting": "[1]; Tenecteplase 0.9 mg/kg, 1 hour following embolization", "result": 130, "unit": "%"}, {"measurement": "effect on P50 vs control", "setting": "[1]; Tenecteplase 0.9 mg/kg, 6 hours following embolization", "result": "did not increase the P50 compared to control; also recorded: neither Tenecteplase, nor NXY-059, significantly (p>0.05) affect P50 values"}]}, {"compound": "CC(=O)[C@H]1CC[C@H]2[C@@H]3CC[C@@H]4C[C@H](OC(=O)CCC(=O)O)CC[C@]4(C)[C@H]3CC[C@]12C", "note": "[ABHS, 3-alpha-ol-5-beta-pregnan-20-one hemisuccinate]", "values": [{"measurement": "effect on tolerance to ischemia", "setting": "[2]; ABHS administered 30 min following the start of occlusion", "result": "increased the tolerance to ischemia"}, {"measurement": "persistence of effect", "setting": "[2]; ABHS injected 5 min following the start of ischemia and again 24 h after ischemia", "result": "persistent effect of the drug at 48 h"}, {"measurement": "Observation", "setting": "[3]; 5 min following embolization", "result": "Sedation"}, {"measurement": "Observation", "setting": "[3]; 180 min following embolization", "result": "Sedation"}, {"measurement": "Abnorm", "setting": "[3]; clot dose 0.53 mg", "result": 0}, {"measurement": "Norm", "setting": "[3]; clot dose 0.53 mg", "result": 1}, {"measurement": "Abnorm", "setting": "[3]; clot dose 1.42 mg", "result": 0}, {"measurement": "Norm", "setting": "[3]; clot dose 1.42 mg", "result": 1}, {"measurement": "Abnorm", "setting": "[3]; clot dose 1.60 mg", "result": 0}, {"measurement": "Norm", "setting": "[3]; clot dose 1.60 mg", "result": 1}, {"measurement": "Abnorm", "setting": "[3]; clot dose 1.72 mg", "result": 0}, {"measurement": "Norm", "setting": "[3]; clot dose 1.72 mg", "result": 1}, {"measurement": "Norm", "setting": "[3]; clot dose 1.99 mg", "result": 0}, {"measurement": "Norm", "setting": "[3]; clot dose 2.21 mg", "result": 0}, {"measurement": "Abnorm", "setting": "[3]; clot dose 2.31 mg", "result": 0}, {"measurement": "Norm", "setting": "[3]; clot dose 2.31 mg", "result": 1}, {"measurement": "Abnorm", "setting": "[3]; clot dose 2.89 mg", "result": 1}, {"measurement": "Norm", "setting": "[3]; clot dose 2.89 mg", "result": 0}, {"measurement": "Abnorm", "setting": "[3]; clot dose 2.97 mg", "result": 0}, {"measurement": "Abnorm", "setting": "[3]; clot dose 3.38 mg", "result": 1}, {"measurement": "Norm", "setting": "[3]; clot dose 3.38 mg", "result": 0}, {"measurement": "Abnorm", "setting": "[3]; clot dose 3.88 mg", "result": 1}, {"measurement": "Norm", "setting": "[3]; clot dose 3.88 mg", "result": 0}, {"measurement": "Norm", "setting": "[3]; clot dose 4.35 mg", "result": 0}, {"measurement": "Abnorm", "setting": "[3]; clot dose 4.67 mg", "result": 0}, {"measurement": "Norm", "setting": "[3]; clot dose 4.67 mg", "result": 1}, {"measurement": "Observation", "setting": "[1]; ABHS 25 mg/kg IV, 60 min following embolization", "result": "Sedation"}, {"measurement": "Abnorm (rabbits rated behaviorally abnormal)", "setting": "[1]; [4]", "result": 0}, {"measurement": "Norm (rabbits rated behaviorally normal)", "setting": "[1]; [4]", "result": 1}, {"measurement": "Abnorm", "setting": "[1]; ABHS 25 mg/kg, 5 min, clot dose 1.99 mg", "result": 1}, {"measurement": "Abnorm", "setting": "[1]; ABHS 25 mg/kg, 5 min, clot dose 2.21 mg", "result": 1}, {"measurement": "Norm", "setting": "[1]; ABHS 25 mg/kg, 5 min, clot dose 2.97 mg", "result": 1}, {"measurement": "Abnorm", "setting": "[1]; ABHS 25 mg/kg, 5 min, clot dose 4.35 mg", "result": 1}, {"measurement": "effect on therapeutic window of tPA", "setting": "[1]; FIG. 7", "result": "increases the therapeutic window for tPA"}]}, {"compound": "CC(C)(C)[N+]([O-])=Cc1ccc(S(=O)(=O)O)cc1S(=O)(=O)O.[Na].[Na]", "note": "[NXY-059, disodium 2,4-disulfophenyl-N-tert-butylnitrone]", "values": [{"measurement": "P50", "setting": "[1]; NXY-059 100 mg/kg, 6 hours following embolization, not significant vs vehicle", "result": "1.35 ± 0.37", "unit": "mg"}, {"measurement": "effect on P50 vs vehicle", "setting": "[1]; NXY-059 doses from 1-100 mg/kg, 1 hour following embolization, p<0.05", "result": "significantly increased the P50"}, {"measurement": "effect on P50 vs vehicle", "setting": "[1]; NXY-059 lower dose (0.10 mg/kg), 1 hour following embolization, p>0.05", "result": "did not"}]}, {"compound": "CC12CC3CC(C)(C1)CC(N)(C3)C2", "note": "[memantine]", "values": [{"measurement": "effect on efficacy of low-dose tPA", "setting": "[1]; FIG. 8", "result": "increases the efficacy of low-dose tPA"}]}]}
